Data: patent publication US9732226B2, “Azo compound, ink containing azo compound, and display and electronic paper containing the ink” (MITSUBISHI CHEMICAL CORPORATION, priority 2012, dated 2017)
Converted amounts (≈) assume the structure as drawn.

Assay: Solubility C in n-decane at 5° C. (saturated solution, absorbance)
Type: physicochemical
Settings: organic solvent or mixture, thermodynamic from solid; saturation solubility in n-decane at 5° C.
Protocol: <Method for Measurement of Solubility C>
The solubility C of Example Compounds 1 to 4 and Comparative Example Compound in n-decane solution was measured as follows.
The compound was added to the solvent until the undissolved residue remained, and ultrasonically treated at 30° C. for 30 minutes. After left at 5° C. for 24 hours, this was centrifuged and filtered through a 0.1 μm-filter using an ultracompact centrifuge (centrifugal force, 5200×g). The resultant saturated solution was diluted to have a suitable concentration, and using a quartz cell having an optical length of 10 mm, the absorption spectrum thereof was measured with Hitachi Spectrophotometer U-4100. From the relationship between the absorbance at the absorption maximum wavelength λmax (nm) and the previously-determined molar absorbance coefficient ε([…]) thereof, the concentration of each compound was determined, and the solubility C (mol·L^−1) at 5° C. and εC (cm^−1) thereof were calculated.

SMILES	solubility at 24 h
C=CCn1c(N=Nc2ccc(N(CCC)CCC)cc2NC(C)=O)nc(C#N)c1C#N [Comparative Example Compound, reference compound]	≤ 0.01 mM
CCCCC(CC)CN(CC(CC)CCCC)c1ccc(N=Nc2c(C#N)cc(C(F)(F)F)cc2C#N)c(NC(C)=O)c1 (stereo not drawn) [Example Compound 1]	20 mM (≈ 11.9 mg/mL)
CCCCC(CC)COC(=O)c1cc(C#N)c(N=Nc2ccc(N(CC(CC)CCCC)CC(CC)CCCC)cc2NC(=O)CC)c(C#N)c1 (stereo not drawn) [Example Compound 2]	160 mM (≈ 112 mg/mL)
CCCCC(=O)Nc1cc(N(CC(CC)CCCC)CC(CC)CCCC)ccc1N=Nc1c(C#N)cc(C(F)(F)F)cc1C#N (stereo not drawn) [Example Compound 3]	350 mM (≈ 224 mg/mL)
CCCCC(CC)COC(=O)c1cc(C#N)c(N=Nc2ccc(N(CC(CC)CCCC)CC(CC)CCCC)cc2NC(C)=O)c(C#N)c1 (stereo not drawn) [Example Compound 4]	75 mM (≈ 51.4 mg/mL)

Same assay, conditions: product of ε and solubility C in n-decane at 5° C.

SMILES	εC	ε · C
CCCCC(CC)CNc1ccc(NCC(CC)CCCC)c2c1C(=O)c1ccc(C(=O)OCC(C)C)cc1C2=O (stereo not drawn) [Blue Compound A, reference compound]	3200 cm⁻¹	–
C=CCn1c(N=Nc2ccc(N(CCC)CCC)cc2NC(C)=O)nc(C#N)c1C#N [Comparative Example Compound, reference compound]	–	10 or less cm^−1
CCCCC(CC)CN(CC(CC)CCCC)c1ccc(N=Nc2c(C#N)cc(C(F)(F)F)cc2C#N)c(NC(C)=O)c1 (stereo not drawn) [Example Compound 1]	–	1,600 cm^−1
CCCCC(CC)COC(=O)c1cc(C#N)c(N=Nc2ccc(N(CC(CC)CCCC)CC(CC)CCCC)cc2NC(=O)CC)c(C#N)c1 (stereo not drawn) [Example Compound 2]	–	13,000 cm^−1
CCCCC(=O)Nc1cc(N(CC(CC)CCCC)CC(CC)CCCC)ccc1N=Nc1c(C#N)cc(C(F)(F)F)cc1C#N (stereo not drawn) [Example Compound 3]	–	26,000 cm^−1
CCCCC(CC)COC(=O)c1cc(C#N)c(N=Nc2ccc(N(CC(CC)CCCC)CC(CC)CCCC)cc2NC(C)=O)c(C#N)c1 (stereo not drawn) [Example Compound 4]	–	6,000 cm^−1
CCCCC(CC)CN(CC(CC)CCCC)c1ccc(N=Nc2snc(CC)c2C#N)c(C)c1 (stereo not drawn) [Red Compound A]	3900 cm⁻¹	–
CCCCc1nn(C(C)(C)C)c(O)c1N=Nc1ccc(N=Nc2ccccc2)cc1 [Yellow Compound A, reference compound]	1900 cm⁻¹	–

Same assay, conditions: solubility in n-decane at 5° C.

SMILES	C
CCCCC(CC)CNc1ccc(NCC(CC)CCCC)c2c1C(=O)c1ccc(C(=O)OCC(C)C)cc1C2=O (stereo not drawn) [Blue Compound A, reference compound]	0.170 mol/L
CCCCC(CC)CN(CC(CC)CCCC)c1ccc(N=Nc2snc(CC)c2C#N)c(C)c1 (stereo not drawn) [Red Compound A]	0.086 mol/L
CCCCc1nn(C(C)(C)C)c(O)c1N=Nc1ccc(N=Nc2ccccc2)cc1 [Yellow Compound A, reference compound]	0.076 mol/L

Assay: Solubility of solvent in water
Type: physicochemical
Settings: pure water, thermodynamic from solid, 25° C.
Protocol: (§1) The solvent was sandwiched between opposed parallel-plate ITO electrode-attached glass substrates having an electrode spacing of 50 μm, and using LCR Meter ZN2371 (manufactured by NF Corporation), the equivalent parallel capacitance thereof was measured at a measurement temperature of 22° C. and at a frequency of 1 kHz, given a test signal voltage of 5 V. Through calculation according to the following equation, the relative permittivity of the solvent was determined. Relative Permittivity=(equivalent parallel capacitance)×(electrode spacing)/(electrode area)/vacuum permittivity(ε0) <Method for Measurement of Solubility of Solvent in Water>
30 g of pure water and 8 g of the solvent were put into a 110 ml-vial, and shaken in a thermostat bath at 25° C. at 200 shake/min for 4 hours. After thus shaken, the liquid was centrifuged (6000×g, 5 minutes), the aqueous layer was sampled, and the concentration of the dissolved solvent was quantified through gas chromatography.
For a mixed solvent comprising two or more different types of solvents, the solubility in water was determined by multiplying the solubility in water of each solvent constituting the mixed solvent by the molar fraction of each solvent, followed by totaling the resultant data. […]

SMILES	solubility at 4 h
CCCCCCCCCC [n-decane]	≤ 1 µg/mL

Assay: Relative permittivity of solvent
Type: physicochemical
Settings: 22° C., measurement frequency 1 kHz
Protocol: as §1, with “<Method for Measurement of Relative Permittivity of Solvent> The” for “The”

SMILES	relative permittivity
CCCCCCCCCC [n-decane]	2.0

Assay: Absorption spectrum of n-decane solution (absorption maximum wavelength, molar absorbance coefficient, color)
Type: physicochemical
Settings: 1 mg in 100 ml n-decane, quartz cell
Protocol: <Method for Measurement of Absorption Maximum Wavelength λMax, Molar Absorbance Coefficient ε>
One mg of each of Example Compounds 1 to 4 and Comparative Example Compound was dissolved in 100 ml of n-decane solution to prepare a solution thereof, and using a quartz cell, the absorption spectrum thereof was measured with Hitachi Spectrophotometer U-4100. The resultant spectrum of the compound gave the absorption maximum wavelength λmax (nm) and the molar absorbance coefficient ε(L·mol^−1·cm^−1) thereof.

SMILES	Maximum Absorption Wavelength
C=CCn1c(N=Nc2ccc(N(CCC)CCC)cc2NC(C)=O)nc(C#N)c1C#N [Comparative Example Compound, reference compound]	512 nm
CCCCC(CC)CN(CC(CC)CCCC)c1ccc(N=Nc2c(C#N)cc(C(F)(F)F)cc2C#N)c(NC(C)=O)c1 (stereo not drawn) [Example Compound 1]	584 nm
CCCCC(CC)COC(=O)c1cc(C#N)c(N=Nc2ccc(N(CC(CC)CCCC)CC(CC)CCCC)cc2NC(=O)CC)c(C#N)c1 (stereo not drawn) [Example Compound 2]	591 nm
CCCCC(=O)Nc1cc(N(CC(CC)CCCC)CC(CC)CCCC)ccc1N=Nc1c(C#N)cc(C(F)(F)F)cc1C#N (stereo not drawn) [Example Compound 3]	585 nm
CCCCC(CC)COC(=O)c1cc(C#N)c(N=Nc2ccc(N(CC(CC)CCCC)CC(CC)CCCC)cc2NC(C)=O)c(C#N)c1 (stereo not drawn) [Example Compound 4]	590 nm

Same assay, conditions: color of the solution of the compound in n-decane

SMILES	Color Tone
C=CCn1c(N=Nc2ccc(N(CCC)CCC)cc2NC(C)=O)nc(C#N)c1C#N [Comparative Example Compound, reference compound]	red
CCCCC(CC)CN(CC(CC)CCCC)c1ccc(N=Nc2c(C#N)cc(C(F)(F)F)cc2C#N)c(NC(C)=O)c1 (stereo not drawn) [Example Compound 1]	violet
CCCCC(CC)COC(=O)c1cc(C#N)c(N=Nc2ccc(N(CC(CC)CCCC)CC(CC)CCCC)cc2NC(=O)CC)c(C#N)c1 (stereo not drawn) [Example Compound 2]	violet
CCCCC(=O)Nc1cc(N(CC(CC)CCCC)CC(CC)CCCC)ccc1N=Nc1c(C#N)cc(C(F)(F)F)cc1C#N (stereo not drawn) [Example Compound 3]	violet
CCCCC(CC)COC(=O)c1cc(C#N)c(N=Nc2ccc(N(CC(CC)CCCC)CC(CC)CCCC)cc2NC(C)=O)c(C#N)c1 (stereo not drawn) [Example Compound 4]	violet

Same assay, conditions: n-decane solution, at absorption maximum wavelength

SMILES	ε (molar absorbance coefficient)
C=CCn1c(N=Nc2ccc(N(CCC)CCC)cc2NC(C)=O)nc(C#N)c1C#N [Comparative Example Compound, reference compound]	34,000 L · mol^−1 · cm^−1
CCCCC(CC)CN(CC(CC)CCCC)c1ccc(N=Nc2c(C#N)cc(C(F)(F)F)cc2C#N)c(NC(C)=O)c1 (stereo not drawn) [Example Compound 1]	80,000 L · mol^−1 · cm^−1
CCCCC(CC)COC(=O)c1cc(C#N)c(N=Nc2ccc(N(CC(CC)CCCC)CC(CC)CCCC)cc2NC(=O)CC)c(C#N)c1 (stereo not drawn) [Example Compound 2]	80,000 L · mol^−1 · cm^−1
CCCCC(=O)Nc1cc(N(CC(CC)CCCC)CC(CC)CCCC)ccc1N=Nc1c(C#N)cc(C(F)(F)F)cc1C#N (stereo not drawn) [Example Compound 3]	75,000 L · mol^−1 · cm^−1
CCCCC(CC)COC(=O)c1cc(C#N)c(N=Nc2ccc(N(CC(CC)CCCC)CC(CC)CCCC)cc2NC(C)=O)c(C#N)c1 (stereo not drawn) [Example Compound 4]	80,000 L · mol^−1 · cm^−1

Same assay, conditions: n-decane solution; same manner as for Example Compound 1

SMILES	ε	λmax
CCCCC(CC)CNc1ccc(NCC(CC)CCCC)c2c1C(=O)c1ccc(C(=O)OCC(C)C)cc1C2=O (stereo not drawn) [Blue Compound A, reference compound]	19000 L/mol/cm	668 nm
CCCCC(CC)CN(CC(CC)CCCC)c1ccc(N=Nc2snc(CC)c2C#N)c(C)c1 (stereo not drawn) [Red Compound A]	4600 L/mol/cm	530 nm
CCCCc1nn(C(C)(C)C)c(O)c1N=Nc1ccc(N=Nc2ccccc2)cc1 [Yellow Compound A, reference compound]	25000 L/mol/cm	417 nm
